# Source: patent publication US20050036992A1, “Novel use of liver X receptor agonists” (IRM LLC, priority 2002, published 2005)
# Tests used:
# LXRs = settings: Lehmann et al. 1997; cited from earlier work
# [1] = tested on: obese, insulin-resistant ob/ob mice; assay: Fasting plasma glucose in ob/ob mice, LXR agonist and/or metformin; assay type: in vivo, mouse; settings: 3 months, GW3965 20 mg/kg/day, metformin 300 mg/kg/day, FIG. 11
# Protocol: This Example describes treatment of mice with a combination of an LXR agonist and a known anti-diabetic drug. Obese, insulin-resistant ob/ob mice were treated with an LXR ligand, GW3965, at 20 mg/kg/day and/or metformin at 300 mg/kg/day for 3 months. Fasting plasma glucose levels were then determined.
# [2] = tested on: GLUT4 expression in adipose tissue of LXR null mice; assay: Adipose tissue gene expression in LXR null mice vs wild-type controls; assay type: in vivo, mouse; settings: 20 mg/kg/day gavage; FIG. 3B
# Protocol: (§1) This Example describes that the effects of LXR agonists on expression of genes involved in glucose metabolism is dependent on LXR expression. LXR null mice or wild-type controls on a mixed background (n=4 per group) were gavaged daily with GW3965 (20 mg/kg/day) or vehicle. At the end of the treatment period, mice were fasted for 12 hours, sacrificed and total RNA was isolated. Gene expression for was determined by real time quantitative PCR assays.
# [3] = tested on: genes involved in glucose metabolism in liver; assay: Gene expression in liver of mice gavaged with LXR agonist (real time quantitative PCR); assay type: in vivo, mouse; settings: C57/B16 mice, 20 mg/kg/day gavage, fasted 12 hours; FIG. 1A
# Protocol: (§2) This Example describes coordinated regulation of genes involved in glucose metabolism by LXR agonist in vivo. 10 week old female C57/B16 mice (n=9 per group) were gavaged daily with GW3965 (20 mg/kg/day) or vehicle. At the end of the treatment period, mice were fasted for 12 hours, sacrificed and total RNA was isolated. Gene expression for individual animals was determined by real time quantitative PCR assays. The results are presented in FIGS. 1 and 2 as average expression for each group +/−standard deviation.
# [4] = tested on: PGC-1 and PEPCK expression in livers of LXR null mice; assay: Liver gene expression in LXR null mice vs wild-type controls; assay type: in vivo, mouse; settings: 20 mg/kg/day gavage; FIG. 3A
# Protocol: as §1
# [5] = tested on: GLUT4 expression in white adipose tissue; assay: Gene expression in white adipose tissue of mice gavaged with LXR agonist (real time quantitative PCR); assay type: in vivo, mouse; settings: C57/B16 mice, 20 mg/kg/day gavage, fasted 12 hours; FIG. 1B
# Protocol: as §2
# LXRβ = target: T1, LXRβ (Homo sapiens, UniProt P55055); settings: Collins et al. 2002; cited from earlier work
# T1 sequence (P55055 1-460): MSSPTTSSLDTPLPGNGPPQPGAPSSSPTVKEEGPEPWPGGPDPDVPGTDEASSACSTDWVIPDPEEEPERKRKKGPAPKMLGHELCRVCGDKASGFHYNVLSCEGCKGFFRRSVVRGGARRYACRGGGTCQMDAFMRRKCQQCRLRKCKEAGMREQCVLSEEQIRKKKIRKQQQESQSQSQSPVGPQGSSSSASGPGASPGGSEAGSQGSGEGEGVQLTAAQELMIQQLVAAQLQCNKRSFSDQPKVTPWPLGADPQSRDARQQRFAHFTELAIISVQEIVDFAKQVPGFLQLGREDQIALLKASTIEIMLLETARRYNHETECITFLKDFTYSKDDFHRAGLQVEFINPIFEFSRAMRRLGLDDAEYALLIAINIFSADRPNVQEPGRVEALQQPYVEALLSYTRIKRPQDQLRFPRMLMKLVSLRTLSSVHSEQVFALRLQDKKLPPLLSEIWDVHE
# LXRα = target: T2, LXRα (Homo sapiens, UniProt Q13133); settings: Collins et al. 2002; cited from earlier work
# T2 sequence (Q13133 1-447): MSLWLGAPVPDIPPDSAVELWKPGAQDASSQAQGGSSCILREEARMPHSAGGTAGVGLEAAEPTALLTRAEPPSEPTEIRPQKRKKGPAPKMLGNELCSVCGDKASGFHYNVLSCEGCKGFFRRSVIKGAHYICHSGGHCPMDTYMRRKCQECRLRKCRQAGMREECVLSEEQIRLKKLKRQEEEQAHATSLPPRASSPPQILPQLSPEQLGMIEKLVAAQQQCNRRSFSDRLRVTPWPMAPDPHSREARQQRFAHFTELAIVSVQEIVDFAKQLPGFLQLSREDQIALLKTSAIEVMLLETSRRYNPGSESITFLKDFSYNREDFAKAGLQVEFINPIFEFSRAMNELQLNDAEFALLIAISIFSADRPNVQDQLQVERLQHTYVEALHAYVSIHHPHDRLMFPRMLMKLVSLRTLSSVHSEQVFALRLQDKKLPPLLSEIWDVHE
# [6] = tested on: C57B16 mice fed a high fat diet; assay: Glucose tolerance test in diet-induced obese mice; assay type: in vivo, mouse; settings: diet-induced obesity, 20 mg/kg/day for one week
# Protocol: To further examine effects of LXR agonists on glucose tolerance, C57B16 mice were fed a high fat diet for three months (Clinton/Cybulsky rodent diet; 40% kcal from fat, devoid of cholesterol) to induce obesity. After 3 months, mice were treated for one week with vehicle or 20 mg/kg/day GW3965. Glucose tolerance tests were performed by intraperitoneal injection of glucose (2 g/kg body weight) after 8 hours of fasting (FIG. […]). In addition, effect of GW3965 on glucose tolerance in lean C57B1/6 mice was also examined (FIG. 10B). The lean C57B1/6 mice maintained on normal chow diet and similarly treated as indicated above.
# human GLUT4 promoter = assay: Human GLUT4 promoter luciferase reporter in 3T3-L1 adipocytes; assay type: cell-based, mouse; settings: 3T3-L1 adipocytes day 8, serum-free media, 24 hours; FIG. 8B
# Protocol: To further examine whether LXR ligands activate the human GLUT4 promoter, clonal populations of 3T3-L1 cells carrying stably-integrated luciferase reporters under the control of various truncations of the human GLUT4 promoter were differentiated into adipocytes. On day 8 of differentiation, cells were incubated in serum-free media with the indicated concentrations of T1317. Luciferase activity was measured 24 hours later.
# 3T3-L1 adipocytes = assay: Basal glucose uptake in 3T3-L1 adipocytes (14C-labeled 2-DOG); assay type: cell-based; settings: 3T3-L1 adipocytes day 10, 24 hours serum-free; FIG. 9
# Protocol: 3T3-L1 adipocytes at day 10 of differentiation were incubated for 24 hours with serum-free media supplemented with the indicated concentrations of T1317. The following day, basal glucose uptake (in the absence of insulin) of treated cells was measured in 96-well CytostarT plates using 14 C-labeled 2-DOG. Insulin (1 μg/ml) was used as positive control.
# [7] = target: T3, glucocorticoid receptor DNA binding domain and the ligand binding region of PPARβ (Homo sapiens, UniProt Q03181); settings: Schmidt et al. 1999; cited from earlier work
# T3 sequence (Q03181 211-439 limits assumed): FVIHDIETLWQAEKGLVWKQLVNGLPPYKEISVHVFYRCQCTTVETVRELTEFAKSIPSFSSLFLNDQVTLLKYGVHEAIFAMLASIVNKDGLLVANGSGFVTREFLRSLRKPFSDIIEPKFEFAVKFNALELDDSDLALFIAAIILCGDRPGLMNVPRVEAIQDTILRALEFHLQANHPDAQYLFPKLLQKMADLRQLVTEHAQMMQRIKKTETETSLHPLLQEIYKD
# [8] = target: T4, glucocorticoid receptor DNA binding domain and the ligand binding region of LXRβ (Homo sapiens, UniProt P55055); settings: Schmidt et al. 1999; cited from earlier work
# T4 sequence (P55055 222-460 limits assumed): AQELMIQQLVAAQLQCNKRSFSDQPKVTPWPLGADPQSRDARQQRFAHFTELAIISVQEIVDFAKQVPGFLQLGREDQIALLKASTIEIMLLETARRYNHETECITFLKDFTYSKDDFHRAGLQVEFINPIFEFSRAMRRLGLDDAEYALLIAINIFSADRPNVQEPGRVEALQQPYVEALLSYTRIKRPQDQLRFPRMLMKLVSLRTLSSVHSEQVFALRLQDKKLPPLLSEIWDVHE
# [9] = target: T5, glucocorticoid receptor DNA binding domain and the ligand binding region of PPARα (Homo sapiens, UniProt Q07869); settings: Schmidt et al. 1999; cited from earlier work
# T5 sequence (Q07869 239-466 limits assumed): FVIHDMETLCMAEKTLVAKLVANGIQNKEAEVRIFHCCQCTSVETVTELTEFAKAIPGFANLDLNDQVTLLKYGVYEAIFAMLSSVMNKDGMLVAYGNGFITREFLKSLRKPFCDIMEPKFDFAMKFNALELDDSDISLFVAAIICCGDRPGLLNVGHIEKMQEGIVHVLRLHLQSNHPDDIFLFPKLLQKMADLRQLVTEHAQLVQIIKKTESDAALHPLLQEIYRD
structure (smiles),measurement,setting,value
CC(C)[C@@H](O)CC[C@@H](C)[C@H]1CC[C@H]2[C@@H]3CC=C4C[C@@H](O)CC[C@]4(C)[C@H]3CC[C@]12C [24(S)-hydroxycholesterol],activation of LXRs,LXRs,activated
CN(C)C(=N)N=C(N)N [metformin],fasting plasma glucose level compared to control (vehicle),[1],did not show significant difference
O=C(O)Cc1cccc(OCCCN(Cc2cccc(C(F)(F)F)c2Cl)CC(c2ccccc2)c2ccccc2)c1 [GW3965],regulation of GLUT4 expression in adipose tissue of LXR null mice,[2],abolished
same,expression of genes involved in gluconeogenesis in liver,[3],represses
same,glucokinase expression in liver,[3],induces
same,regulation of PEPCK expression in livers of LXR null mice,[4],abolished
same,regulation of PGC-1 expression in livers of LXR null mice,[4],abolished
same,GLUT4 expression in white adipose tissue,[5],induces
same,activation of LXRβ,LXRβ,effective in activating
same,activation of LXRα,LXRα,effective in activating
same,insulin resistance,[6],improve
same,glucose tolerance,[6]; i.p. glucose 2 g/kg after 8 hours fasting,improve
same,fasting plasma glucose level compared to control (vehicle),[1],did not show significant difference
O=S(=O)(c1ccccc1)N(CC(F)(F)F)c1ccc(C(O)(C(F)(F)F)C(F)(F)F)cc1 [T1317],luciferase activity under control of human GLUT4 promoter truncations,human GLUT4 promoter,direct target for regulation
same,basal glucose uptake (in the absence of insulin),3T3-L1 adipocytes,enhance glucose uptake
CC(C)CC[C@@H](O)[C@@H](C)[C@H]1CC[C@H]2[C@@H]3CC=C4C[C@@H](O)CC[C@]4(C)[C@H]3CC[C@]12C [22(R)-hydroxycholesterol],activation of LXRs,LXRs,activated
"C[C@H](CC[C@@H]1OC1(C)C)[C@H]1CC[C@H]2[C@@H]3CC=C4C[C@@H](O)CC[C@]4(C)[C@H]3CC[C@]12C [24,25(S)-epoxycholesterol]",activation of LXRs,LXRs,activated
"CCCCCCCCCCCCCCOc1ccc(C(=O)O)o1 [TOFA, 5-tetradecyloxy-2-furancarboxylic acid]",transactivation of chimeric GR DBD / PPARβ ligand binding region receptor,[7],transactivates
same,transactivation of chimeric GR DBD / LXRβ ligand binding region receptor,[8],transactivates
same,transactivation of chimeric GR DBD / PPARα ligand binding region receptor,[9],transactivates
